Measurements reported in patent US20250092013A1, “PRODRUGS OF AXITINIB” (OCULAR THERAPEUTIX, INC., priority 2021, published 2025).
In brackets after ≈: the same amount, converted by molar mass.

Assays:
[1] = Solubility testing in phosphate buffer saline pH 7.4 (HPLC with calibration curve); assay type: physicochemical
Protocol: Solubility testing was performed with the following test items and conditions: • Test items: axitinib (99.99% purity by HPLC); axitinib-N-succinoyloxymethyl prodrug (94.3% purity by HPLC); • Test media: phosphate buffer saline pH 7.4 • Incubation condition: 24 hour at 22° C. with continuous shaking • Test concentration: 1 mg/mL • Data analysis: Solubility of test item was determined by HPLC analysis with calibration curve

[2] = cited from earlier work

solubility at 24 h ([1]; 22 °C, pH 7.4, aqueous buffer, thermodynamic from solid) | Solubility ([1]; phosphate buffer saline pH 7.4, 24 hour at 22° C. with continuous shaking, test concentration 1 mg/mL) | solubility of the prodrug enhanced (fold vs axitinib) ([1]; relative to literature reported solubility of axitinib (about 0.2 mcg/mL)) | Compound | literature reported solubility [2]
< 0.78 µg/mL | – | – | CNC(=O)c1ccccc1Sc1ccc2c(/C=C/c3ccccn3)n[nH]c2c1 [Axitinib, axitinib] | about 0.2 mcg/mL
– | 217.4 µg/mL (≈ 421 µM) | ~1100 × | CNC(=O)c1ccccc1Sc1ccc2c(/C=C/c3ccccn3)nn(COC(=O)CCC(=O)O)c2c1 [N-Succinoyloxymethyl Prodrug, axitinib-N-succinoyloxymethyl] | –
